Patent publication EP4818172A1, “ASCORBIC ACID DERIVATIVES AND COSMETIC CONTAINING SAME” (Seiwa Kasei Co., Ltd., priority 2023, dated 2025)

How the values were obtained:
[1] = system: Normal human dermal fibroblasts; assay: Collagen production promoting effect (ELISA of free collagen in supernatant); assay type: cell-based; settings: sample at 10 mM or less, cultured 48 hours, % of control group (100%), N=3
Method: Normal human dermal fibroblasts were prepared in D-MEM containing 5% (v/v) fetal bovine serum to a cell density of 2.5 × 10^4 cell s /well, and then pre-incubated for 24 hours on a 96-well plate. After removing the medium, samples prepared to a predetermined concentration in D-MEM containing 5% (v/v) fetal bovine serum were added to each well and cultured for 48 hours. After the culture was completed, the amount of free collagen in the supernatant was quantified by ELISA. Measurements were performed in triplicate (N=3).
The amount of collagen produced when the sample was measured at a concentration of 10 mM or less was compared with that of the control group, and the results (% values when the control group was set to 100%) are shown in Table 17 based on the following criteria. • <100%: ± • 100-140%: + • 140%<: ++ [Table 17]

[2] = system: Normal human epidermal keratinocytes; assay: Antioxidant effect: ROS production inhibition after H2O2 (DCFHDA probe); assay type: cell-based; settings: sample at 10 mM or less, 24 hours, then 0.2 mM H2O2 for 2 hours, N=4
Method: Normal human epidermal keratinocytes were seeded onto a 96-well plate using KG2 medium at a cell density of 2.0 × 10^4 cells/well. After 24 hours of pre-incubation, samples adjusted to a predetermined concentration in KG2 medium were added to each well. After 24 hours of incubation, the medium was removed, followed by washing with HBSS(-) and the incorporation of the ROS-reactive fluorescent probe DCFHDA for 30 minutes. The cells were again washed with HBSS(-), treated with 0.2 mM H2O2, and incubated for 2 hours. The fluorescence intensity was measured, and the amount of ROS produced per unit protein was calculated by dividing the fluorescence intensity by the amount of protein quantified by the BCA method, resulting in an analytical value of 1. Furthermore, the amount of ROS production calculated without adding the sample adjusted to a predetermined concentration using the above test method was set to analytical value 2; and the amount of ROS production calculated without adding the sample or 0.2 mM H2O2 was set to analytical value 3.
ROS production inhibition rate (%) was calculated using the following formula. The higher the ROS production inhibition rate, the greater the antioxidant effect can be evaluated to be.
ROS production inhibition rate (%) = [(analysis value 2) - (analysis value 1)] / [(analysis value 2) - (analysis value 3)] × 100
The ROS production inhibition rate when the sample was measured at a concentration of 10 mM or less was evaluated as follows. Note that the measurement was performed in N=4. • <20%: + • 20-40%: ++ • 40%<: +++ [Table 21]

[3] = system: Normal human dermal fibroblasts (NHDF); assay: Hyaluronic acid production promoting effect (ELISA of supernatant); assay type: cell-based; settings: sample at 10 mM or less in serum-free D-MEM, cultured 48 hours, % of control group (100%), N=3
Summary of the method: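 NHDF pre-incubated 24 h in D-MEM/5% FBS, then exposed to samples (10 mM or less) in serum-free D-MEM for 48 h. Supernatant hyaluronic acid measured by ELISA, triplicate. Output expressed as % of untreated control (control = 100%), graded ±/+/++ at <100%, 100-120%, >120%.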

[4] = Stability test -2: odor and coloration of cream stored at 50°C; assay type: physicochemical; settings: Test Example 2, cream stored at 50°C, total score of 10 panelists
Method: For each of the samples of Synthesis Examples 1 to 6, 1% aqueous solutions were adjusted to pH 3, 5, 7, 8, and 9 with a dilute potassium hydroxide aqueous solution, and then placed in 50 mL screw tubes and • 2: Color changes compared to immediately after preparation. • 1: Strongly colored compared to immediately after preparation. Based on the results of the above evaluation, the following classification was made: • ○: Total score of 10 panelists is 25 or more • △: Total score of 10 panelists is 16-24 • ×: The total score of 10 panelists is 15 or less [Table 10]
(§1) For each of the samples of Synthesis Examples 9 to 32, (a) and (b) shown in Table 12 were each heated and mixed. After cooling, (c) shown in Table 12 was added to prepare a cream with a pH of 7 or 9. The sample was stored at 50°C for 4 weeks, and the residual rate was determined in the same manner as in Test Example 1 and evaluated according to the criteria described below. The odor and coloration were also evaluated according to the same method and criteria as in Test Example 1. The results regarding the residual rate are shown in Tables 13 and 14, and the results regarding the odor and coloration are shown in Tables 15 and 16.

[5] = Stability test -2: residual rate in cream of pH 7 or 9 stored at 50°C; assay type: physicochemical; settings: cream with 4.0 W/W% derivative
Method: as §1
• ⊚: 95% or more • ○: 85% or more, less than 95% • ×: Less than 85% [Table 12]

Row | Odor After 4 weeks [4] | Residual Rate After 2 weeks ([5]; pH7, stored at 50°C) | Residual Rate After 4 weeks ([5]; pH7, stored at 50°C) | Residual Rate After 2 weeks ([5]; pH9, stored at 50°C) | Residual Rate After 4 weeks ([5]; pH9, stored at 50°C) | SMILES | Collagen production-promoting effect [1] | Antioxidant effect (ROS production inhibition rate) [2] | Hyaluronic acid production-promoting effect [3] | Coloration After 2 weeks [4] | Odor After 2 weeks [4] | Coloration After 4 weeks [4]
1 | Δ | ⊚ (95% or more) | ⊚ (95% or more) | ⊚ (95% or more) | ⊚ (95% or more) | CCCC(=O)OCC(O)C1OC(=O)C2=C1OCCCCO2 (stereo not shown) [synthesis example 9, 6-O-butanoyl-2,3-O-(1,4-butanediyl) ascorbic acid] | + (100-140%) | ++ (20-40%) | ++ (120%<) | ○ (Total score of 10 panelists is 25 or more) | ○ (Total score of 10 panelists is 25 or more) | ○ (Total score of 10 panelists is 25 or more)
2 | Δ | ⊚ (95% or more) | ⊚ (95% or more) | ⊚ (95% or more) | ○ (85% or more, less than 95%) | CCCCCCCCCCCC(=O)OCC(OC(=O)CCCCCCCCCCC)C1OC(=O)C2=C1OCCCCO2 (stereo not shown) [synthesis example 14, 5,6-O-dilauroyl-2,3-O-(1,4-butanediyl) ascorbic acid] | – | + (<20%) | ++ (120%<) | ○ (Total score of 10 panelists is 25 or more) | ○ (Total score of 10 panelists is 25 or more) | ○ (Total score of 10 panelists is 25 or more)
3 | Δ | ⊚ (95% or more) | ⊚ (95% or more) | ⊚ (95% or more) | ⊚ (95% or more) | CCCCCCCCCCCCCCCC(=O)OCC(O)C1OC(=O)C2=C1OCCCCO2 (stereo not shown) [synthetic example 15, 6-O-palmitoyl-2,3-O-(1,4-butanediyl) ascorbic acid] | ++ (140%<) | + (<20%) | ++ (120%<) | ○ (Total score of 10 panelists is 25 or more) | ○ (Total score of 10 panelists is 25 or more) | ○ (Total score of 10 panelists is 25 or more)

Further lines, the compound ahead of its results:

Row | SMILES | Odor After 4 weeks [4] | Residual Rate After 2 weeks ([5]; pH7, stored at 50°C) | Residual Rate After 4 weeks ([5]; pH7, stored at 50°C) | Residual Rate After 2 weeks ([5]; pH9, stored at 50°C) | Residual Rate After 4 weeks ([5]; pH9, stored at 50°C) | Collagen production-promoting effect [1] | Antioxidant effect (ROS production inhibition rate) [2] | Hyaluronic acid production-promoting effect [3] | Coloration After 2 weeks [4] | Odor After 2 weeks [4] | Coloration After 4 weeks [4]
4 | O=C1O[C@H]([C@@H](O)CO)C(O)=C1OCC(O)CO (stereo partly shown) [2-O-glyceryl ascorbic acid, reference compound] | – | – | – | – | – | + (100-140%) | + (<20%) | – | – | – | –
5 | O=C1O[C@H]([C@@H](O)CO)C(OCC(O)CO)=C1O (stereo partly shown) [3-O-glyceryl ascorbic acid, reference compound] | – | – | – | – | – | + (100-140%) | + (<20%) | – | – | – | –
6 | CCCC(=O)OCC(OC(=O)CCC)C1OC(=O)C2=C1OCCCCO2 (stereo not shown) [synthesis example 10, 5,6-O-dibutanoyl-2,3-O-(1,4-butanediyl) ascorbic acid] | Δ | ⊚ (95% or more) | ⊚ (95% or more) | ⊚ (95% or more) | ⊚ (95% or more) | ++ (140%<) | + (<20%) | ++ (120%<) | ○ (Total score of 10 panelists is 25 or more) | ○ (Total score of 10 panelists is 25 or more) | ○ (Total score of 10 panelists is 25 or more)
7 | CCCCCCCCCCCC(=O)OCC(O)C1OC(=O)C2=C1OCCCCO2 (stereo not shown) [synthesis example 13, 6-O-lauroyl-2,3-O-(1,4-butanediyl) ascorbic acid] | Δ | ⊚ (95% or more) | ⊚ (95% or more) | ⊚ (95% or more) | ⊚ (95% or more) | – | + (<20%) | ++ (120%<) | ○ (Total score of 10 panelists is 25 or more) | ○ (Total score of 10 panelists is 25 or more) | ○ (Total score of 10 panelists is 25 or more)
8 | CC(C)CCCCCCCCCCCCCCC(=O)OC[C@H](O)[C@H]1OC(=O)C2=C1OCCCCO2 [synthesis example 17, 6-O-isostearoyl-2,3-O-(1,4-butanediyl) ascorbic acid] | Δ | ⊚ (95% or more) | ⊚ (95% or more) | ⊚ (95% or more) | ⊚ (95% or more) | ++ (140%<) | + (<20%) | ++ (120%<) | ○ (Total score of 10 panelists is 25 or more) | ○ (Total score of 10 panelists is 25 or more) | ○ (Total score of 10 panelists is 25 or more)
9 | CCCCCCCC(=O)OCC(OC(=O)CCCCCCC)C1OC(=O)C2=C1OCCCO2 (stereo not shown) [synthesis example 23, 5,6-O-dioctanoyl-2,3-O-(1,3-propanediyl) ascorbic acid] | Δ | ⊚ (95% or more) | ⊚ (95% or more) | ⊚ (95% or more) | ⊚ (95% or more) | ++ (140%<) | + (<20%) | + (100-120%) | ○ (Total score of 10 panelists is 25 or more) | ○ (Total score of 10 panelists is 25 or more) | ○ (Total score of 10 panelists is 25 or more)
